Experimental data published in PMC12276035, “Novel Para‐Phenylenediamine‐Based Derivatives as Receptor Tyrosine Kinase‐like Orphan Receptor 1 (ROR1) Inhibitors: An In Vitro Preliminary Characterization” (Chemmedchem, 2025).

Key:
[1] = test system: JeKo‐1 cells; assay: Annexin V‐FITC/PI staining apoptosis, flow cytometry; assay type: cell-based, human; conditions: JeKo‐1, 20 μM, 72 h, early and late apoptosis
Excerpt: This observation aligns with previous studies reporting that ROR1 is highly expressed in B‐cell malignancies, including mantle cell lymphoma, where it plays a crucial role in survival signaling and resistance to apoptosis.^[ [10], [32] ^] Given the higher susceptibility of JeKo‐1 cells to the inhibitor, we selected this model for further apoptotic analysis. However, for completeness, apoptotic data for the SH‐SY5Y cell line are also provided in the Supporting Information (Figure S39, Supporting Information). Specifically, cells were incubated with compounds 17, 20, or 29 (20 μM) for 72 h and a flow cytometry analysis using Annexin V/PI staining was performed. After treatment, a very strong increase in the apoptotic response was observed, in both early and late apoptotic populations compared to the negative control (Figure 4 ). […] These findings are in accordance with the literature and further support the potential of ROR1 inhibition in promoting cell death in mantle cell lymphoma.^[ [33] ^]
Figure 4 Proapoptotic activity of compounds 17, 20, and 29 (20 μM) on JeKo‐1 cells treated for 72 h. A) Representative flow cytometry plots using Annexin V‐FITC/PI staining for apoptosis. B) Related quantitative analysis is reported. Data are expressed as a percentage of live, apoptotic, and necrotic cells. Results are shown as mean ± standard deviation (SD) from three independent experiments. *** denote p < 0.001 versus Ctrl.
Apoptosis of the cells was assessed using annexin V‐FITC/PI reagents. JeKo‐1 cells (60 × 10^3 cells/well) were seeded into 24‐well plates and incubated for 72 h with compounds (20 and 10 μM). After treatment, the collected cells were resuspended in a 100 μL assay buffer, then 5 Annexin V‐FITC and 1 PI reagents were added following incubation for 20 min at room temperature according to the manufacturer's protocol (Dead Cell Apoptosis Kits with Annexin V for Flow Cytometry, Thermo Fisher Scientific). Cells were analyzed with a Becton Dickinson FACScan flow cytometer using the Cell Quest software, version 4 (Franklin Lakes, NJ, USA).^[ [46] ^]

[2] = test system: JeKo‐1 cells; assay: MTT cell viability assay, JeKo‐1; assay type: cell-based; conditions: Homo sapiens, cytotoxicity, treated for 72 h, read-out: EC50 ± SD JeKo‐1
Description: Cytotoxicity studies, assessing the activity of the synthetized compounds, were performed only on the molecules showing the best binding profile in the SPR assay. MTT test was performed on two cell lines known for overexpressing ROR1, particularly MTT assays were conducted on JeKo‐1 (human mantle cell lymphoma) and SH‐SY5Y (neuroblastoma), exposing them to different concentrations of compounds for 72 h (Table 2 ). […] This increased effectiveness is likely due to the high expression of the target protein in leukemia and other hematologic malignancies. […] A key structural difference in 18 and 19 compared to active compounds is the absence of the trifluoromethyl group on the aromatic ring. Indeed, the removal of the trifluoromethyl group (18) or the incorporation of an electron‐donating substituent (19) alters the interaction with the ATP‐binding pocket.
The JeKo‐1 mantle cell lymphoma (MCL) cell line, derived from mantle cell lymphoma of B‐cell lineage, was obtained from ATCC and was grown in RPMI supplemented with 10% v/v fetal bovine serum, 2 mM L‐glutamine, 100 U mL^−1 penicillin, and 0.1 mg mL^−1 streptomycin.
Cell viability was established by measuring mitochondrial metabolic activity with MTT. In brief, SH‐SY5Y (20 × 10^3 cells/well) and JeKo‐1 (10 × 10^3 cells/well) were plated into 96‐well plates for 24 h, then the compounds (1.56–50 μM) were added. […], cells were replaced with a fresh medium containing 0.5 mg mL^−1 MTT.^[ [45] ^] Cells were incubated for 1–3 h at 37 °C, then the medium was discarded, and formazan blue crystals in the cells dissolved with 100 μL per well of a solution containing isopropanol/HCl 0.1 M. The absorbance was measured at 570 nm using a microplate reader (Multiskan Go, Thermo Scientific, Waltham, MA, USA). Cell viability was expressed as a percentage relative to the untreated cells cultured in medium with 0.1% DMSO and set to 100%, whereas 10% DMSO was used as positive control and set to 0% of viability. The EC50 values were calculated using GraphPad Prism 8.0 software by nonlinear regression of dose‐response inhibition.

[3] = test system: ROR1 pathways in JeKo‐1 cells; assay: Western blotting of ROR1 pathway; assay type: cell-based, human; conditions: western blot
Excerpt: This time‐dependent reduction in P‐ROR1 is particularly significant, as it represents the upstream event that drives the observed proapoptotic downstream effects. […] Indeed, activation of ROR1 initiates the nonclassical Wnt (PI3K/AKT/mTOR) pathway and upregulates the phosphorylation level of AKT, which contributes to the survival and proliferation of cancer cells.^[ [25] ^]
Figure 6 Molecular effects of 17 on ROR1 pathways in JeKo‐1 cells. For each western blotting analysis, three independent experiments were performed, and the SD is expressed by error bars. The relative fold change versus untreated cells, set as 1, is shown in the graph. *, **, and *** denote respectively p < 0.05, p < 0.01, and p < 0.001 versus Ctrl.
JeKo‐1 cells (2.5 × 10^6 cells/well) were seeded in a T‐75 flask, treated with compound 17 (10 μM) for different times (4, 8, and 24 h). After treatments, cells were washed twice with PBS and detached with a scraper, centrifuged at 655 g × 10 min at 4 °C. Full proteins were extracted by lysis buffer (20 mM Tris‐HCl pH 7.5, 150 mM NaCl, 1 mM Na2EDTA, 1 mM EGTA, 2% NP‐40, 1% sodium deoxycholate, 1× protease and phosphatase inhibitor cocktail) for 30 min. Then, cell lysates were centrifuged at 4850 g for 20 min at 4 °C. 60 μg of total proteins were run on 8% SDS‐PAGE and transferred to nitrocellulose membranes using a minigel apparatus (Bio‐Rad Laboratories, Hercules, CA, USA). Blots were blocked in phosphate‐buffered saline, containing Tween‐20 0.1% and 5% BSA for 1 h at room temperature and incubated overnight with specific primary antibodies at 4 °C with slight agitation. α‐Tubulin was used as the loading control. […] Antigen‐antibody complexes were detected by enhanced chemiluminescence (ECL kit, Amersham, Germany). […]

With `O=C(NCc1ccc(-c2ccccc2)cc1)Nc1ccc(NCC2CCNCC2)cc1C(F)(F)F` [Compound 17] the apoptotic cells [1] was 89.02 ± 3.12%, the EC50 [2] was 10.3 ± 2.86 µM and the AKT phosphorylation ([3]; JeKo‐1, 10 μM, 4, 8 and 24 h) was “significant decrease”. For the same molecule, the ROR1 phosphorylation ([3]; JeKo‐1, 10 μM, 4, 8 and 24 h) was “marked reduction” and the “total ROR1 protein levels” value ([3]; JeKo‐1, 10 μM, 24 h) was “increase”.
